Experimental data published in patent US20250129044A1 (priority 2021, published 2025).
Counter-ions that a name gives are not always drawn.

Target: sodium channel isoforms (Homo sapiens, UniProt P35498)
Assay type: cell-based
Conditions: area under the sodium current trace, step from −120 mV to 0 mV, HEK cells
Experimental: The sodium channel isoforms of interest are stably expressed in Human Embryonic Kidney Cells and the currents that flow through those channels in response to a depolarizing voltage clamp step from −120 mV to 0 mV are measured in the presence of increasing concentrations of the chemical agents. The area under the sodium current trace which correlates to the magnitude of sodium flux through the cell membrane is used to quantify the effects on gating of the channels. Other parameters that are measured in the assay include the peak current, time constant of open state inactivation and the voltage dependence of steady state inactivation properties. The concentration responses are used to determine potency of each chemical agents effects on modulating the sodium channel isoform gating. Such techniques are known to those skilled in the art, and may be developed, using current technologies, into low or medium throughput assays for evaluating compounds for their ability to modulate sodium channel behaviour.

SMILES | Empirical Emax | EC50 [µM]
FC1(F)CCC(c2nccc(-c3ccccc3)c2-c2nc3c([nH]2)COCC3)CC1 [Example 46, 2-(2-(4,4-difluorocyclohexyl)-4-phenylpyridin-3-yl)-3,4,6,7-tetrahydropyrano[3,4-d]imidazole] | +++ (+++ indicates a value from 5.0 up to 7.5 μM) | –
CC(C)c1ncc(C(=O)Nc2c(-c3ccccc3F)ccnc2C2C[C@@H]3[C@H](C2)C3(F)F)cn1 (stereo partly drawn) [Example 23, N-[2-[(1R,5S)-6,6-difluoro-3-bicyclo[3.1.0]hexanyl]-4-(2-fluorophenyl)-3-pyridyl]-2-isopropyl-pyrimidine-5-carboxamide] | ++++ (++++ indicates a value greater than 7.5) | –
O=C(Nc1c(-c2cc(F)ccc2F)ccnc1C1CCC(F)(F)CC1)c1cnc(N2C3CCC2COC3)nc1 [Example 159, 2-(3-oxa-8-azabicyclo[3.2.1]octan-8-yl)-N-(2-(4,4-difluorocyclohexyl)-4-(2,5-difluorophenyl)pyridin-3-yl)pyrimidine-5-carboxamide] | – | < 1
Fc1ccc(F)c(-c2ccnc(C3CCC(F)(F)CC3)c2-c2nc3c([nH]2)COCC3)c1 [Example 47, 2-(2-(4,4-difluorocyclohexyl)-4-(2,5-difluorophenyl)pyridin-3-yl)-3,4,6,7-tetrahydropyrano[3,4-d]imidazole] | +++ (+++ indicates a value from 5.0 up to 7.5 μM) | –
CC(C)c1ncc(C(=O)Nc2c(-c3ccccc3F)ccnc2C2CCC(F)(F)CC2)cn1 [Example 15, N-[2-(4,4-difluorocyclohexyl)-4-(2-fluorophenyl)-3-pyridyl]-2-isopropyl-pyrimidine-5-carboxamide] | ++++ (++++ indicates a value greater than 7.5) | –
CC(C)c1ncc(C(=O)Nc2c(C3=CCCCO3)ccnc2C2CCC(F)(F)CC2)cn1 [Example 54, N-(2-(4,4-difluorocyclohexyl)-4-(3,4-dihydro-2H-pyran-6-yl)pyridin-3-yl)-2-isopropylpyrimidine-5-carboxamide] | ++++ (++++ indicates a value greater than 7.5) | –
CC(C)c1ncc(C(=O)Nc2c(-c3ccccc3F)ccnc2[C@H]2CC[C@@H](F)CC2)cn1 [Example 33] | +++ (+++ indicates a value from 5.0 up to 7.5 μM) | –
CC(C)c1ncc(C(=O)Nc2c(-c3ccccc3F)ccnc2[C@H]2CC[C@H](C(F)(F)F)CC2)cn1 [Example 30, N-[4-(2-fluorophenyl)-2-[4-(trifluoromethyl)cyclohexyl]-3-pyridyl]-2-isopropyl-pyrimidine-5-carboxamide] | ++ (++ indicates a value from 2.0 up to 5.0 μM) | –
O=C(Nc1ccc(Cl)nc1)c1c(-c2ccccc2F)ccnc1C1=CCOCC1 [Example 51] | + (+ indicates a value less than 2.0 μM) | –
CC(C)c1ncc(C(=O)Nc2c(-c3ccccc3F)ccnc2C2CCOCC2)cn1 [Example 14, N-(4-(2-fluorophenyl)-2-(tetrahydro-2H-pyran-4-yl)pyridin-3-yl)-2-isopropylpyrimidine-5-carboxamide] | +++ (+++ indicates a value from 5.0 up to 7.5 μM) | –
CC(C)c1ncc(C(=O)Nc2c(-c3ccccc3F)ccnc2C2CCCCO2)cn1 (centres unmarked) [Example 18, N-[4-(2-fluorophenyl)-2-tetrahydropyran-2-yl-3-pyridyl]-2-isopropyl-pyrimidine-5-carboxamide] | +++ (+++ indicates a value from 5.0 up to 7.5 μM) | –
O=C(Nc1c(-c2cc(F)ccc2F)ccnc1C1CCC(F)(F)CC1)c1cnc(N2CC3CC(C3)C2)nc1 [Example 166, 2-(3-azabicyclo[3.1.1]heptan-3-yl)-N-(2-(4,4-difluorocyclohexyl)-4-(2,5-difluorophenyl)pyridin-3-yl)pyrimidine-5-carboxamide] | – | < 1
O=C(Nc1ccc(Cl)nc1)c1c(-c2ccccc2F)ccnc1C1CCCC1 [Example 49, N-(6-chloropyridin-3-yl)-2-cyclopentyl-4-(2-fluorophenyl)nicotinamide] | + (+ indicates a value less than 2.0 μM) | –
CC(C)c1ncc(C(=O)Nc2c(-c3ccccc3F)ccnc2C2CCC3(C2)CC3(F)F)cn1 (centres unmarked) [Example 27, N-[2-(2,2-difluorospiro[2.4]heptan-6-yl)-4-(2-fluorophenyl)-3-pyridyl]-2-isopropyl-pyrimidine-5-carboxamide] | +++ (+++ indicates a value from 5.0 up to 7.5 μM) | –
CC(C)c1ncc(C(=O)Nc2c(-c3ccccc3F)ccnc2C2CCC(F)(F)C2)cn1 (centres unmarked) [Example 24, N-[2-(3,3-difluorocyclopentyl)-4-(2-fluorophenyl)-3-pyridyl]-2-isopropyl-pyrimidine-5-carboxamide] | ++++ (++++ indicates a value greater than 7.5) | –
CC(C)c1ncc(C(=O)Nc2c(-c3ccccc3F)ccnc2C2CCCC(F)(F)C2)cn1 (centres unmarked) [Example 26, N-[2-(3,3-difluorocyclohexyl)-4-(2-fluorophenyl)-3-pyridyl]-2-isopropyl-pyrimidine-5-carboxamide] | +++ (+++ indicates a value from 5.0 up to 7.5 μM) | –
CC(C)c1ncc(C(=O)Nc2c(-c3ccccc3F)ccnc2[C@H]2CC[C@](O)(C(F)(F)F)CC2)cn1 [Example 21, N-[4-(2-fluorophenyl)-2-[4-hydroxy-4-(trifluoromethyl)cyclohexyl]-3-pyridyl]-2-isopropyl-pyrimidine-5-carboxamide] | + (+ indicates a value less than 2.0 μM) | –
CC(C)c1ncc(C(=O)Nc2c(-c3ccccc3F)ccnc2C2CC(F)(F)CN2C(=O)OC(C)(C)C)cn1 (centres unmarked) [Example 31, tert-butyl 4,4-difluoro-2-[4-(2-fluorophenyl)-3-[(2-isopropylpyrimidine-5-carbonyl)amino]-2-pyridyl]pyrrolidine-1-carboxylate] | + (+ indicates a value less than 2.0 μM) | –
CO[C@H]1CC[C@@H](c2nccc(-c3ccccc3F)c2NC(=O)c2cnc(C(C)C)nc2)CC1 [Example 38] | + (+ indicates a value less than 2.0 μM) | –
COC1CCN(C(=O)Nc2c(-c3ccccc3F)ccnc2C2CCC(F)(F)CC2)CC1 [Example 5, N-[2-(4,4-difluorocyclohexyl)-4-(2-fluorophenyl)-3-pyridyl]-4-methoxy-piperidine-1-carboxamide] | +++ (+++ indicates a value from 5.0 up to 7.5 μM) | –
CC(C)c1ncc(C(=O)Nc2c(-c3ccccc3F)ccnc2C2CC(F)(F)CCN2)cn1 (racemic) [Example 41, (±)—N-[2-(4,4-difluoro-2-piperidyl)-4-(2-fluorophenyl)-3-pyridyl]-2-isopropyl-pyrimidine-5-carboxamide hydrochloric acid salt] | ++ (++ indicates a value from 2.0 up to 5.0 μM) | –
COc1ccc(C(=O)Nc2c(-c3cc(F)ccc3F)ccnc2C2CCC(F)(F)CC2)cn1 [Example 8, N-[2-(4,4-difluorocyclohexyl)-4-(2,5-difluorophenyl)-3-pyridyl]-6-methoxy-pyridine-3-carboxamide] | +++ (+++ indicates a value from 5.0 up to 7.5 μM) | –
CC(C)c1ncc(C(=O)Nc2c(-c3ccccn3)ccnc2C2CCC(F)(F)CC2)cn1 [Example 55, N-(2′-(4,4-difluorocyclohexyl)-[2,4′-bipyridin]-3′-yl)-2-isopropylpyrimidine-5-carboxamide] | +++ (+++ indicates a value from 5.0 up to 7.5 μM) | –
